Source: patent US20160286810A1, “ACTIVE COMPOUND COMBINATIONS” (BAYER CROPSCIENCE AG, priority 2012, published 2016)

Assays:
Assay type in all cases: in vivo
Venturia inaequalis = test: Venturia test (apples)/preventive; conditions: preventive, 10 days after inoculation
Protocol: (§1) Solvent: 24.5 parts by weight of acetone • 24.5 parts by weight of dimethylacetamide Emulsifier: 1 part by weight of alkylaryl polyglycol ether
(§2) To produce a suitable preparation of active compound, 1 part by weight of active compound is mixed with the stated amounts of solvent and emulsifier, and the concentrate is diluted with water to the desired concentration.
(§3) To test for preventive activity, young plants are sprayed with the preparation of active compound at the stated rate of application. After the spray coating has dried on, the plants are inoculated with an aqueous conidia suspension of the causal agent of apple scab (Venturia inaequalis) and then remain for 1 day in an incubation cabinet at approximately 20° C. and a relative atmospheric humidity of 100%.
The plants are then placed in a greenhouse at approximately 21° C. and a relative atmospheric humidity of approximately 90%.
The test is evaluated 10 days after the inoculation. 0% means an efficacy which corresponds to that of the untreated control, while an efficacy of 100% means that no disease is observed.

Botrytis cinerea = test: Botrytis test (beans)/preventive; conditions: preventive, 2 days after inoculation
Protocol: as §1, §2
To test for preventive activity, young plants are sprayed with the preparation of active compound. After the spray coating has dried on, 2 small pieces of agar covered with growth of Botrytis cinerea are placed on each leaf. The inoculated plants are placed in a darkened chamber at 20° C. and a relative atmospheric humidity of 100%.
2 days after the inoculation, the size of the lesions on the leaves is evaluated. 0% means an efficacy which corresponds to that of the untreated control, while an efficacy of 100% means that no disease is observed.

Alternaria solani = test: Alternaria test (tomatoes)/preventive; conditions: preventive, 3 days after inoculation
Protocol: as §1, §2
as §3, with “spore” for “conidia”, “Alternaria solani. The plants are” for “the causal agent of apple scab (Venturia inaequalis) and”, “placed” for “remain for 1 day”
The test is evaluated 3 days after the inoculation. 0% means an efficacy which corresponds to that of the untreated control while an efficacy of 100% means that no disease is observed.

Leptosphaeria nodorum = Leptosphaeria nodorum test (wheat)/preventive; conditions: preventive, 8 days after inoculation
Protocol: Solvent: 49 parts by weight of N,N-dimethylacetamide Emulsifier: 1 part by weight of alkylaryl polyglycol ether To produce a suitable preparation of active compound, 1 part by weight of active compound or active compound combination is mixed with the stated amounts of solvent and emulsifier, and the concentrate is diluted with water to the desired concentration. To test for preventive activity, young plants are sprayed with the preparation of active compound or active compound combination at the stated rate of application. After the spray coating has been dried, the plants are sprayed with a spore suspension of Leptosphaeria nodorum. The plants remain for 48 hours in an incubation cabinet at approximately 20° C. and a relative atmospheric humidity of approximately 100%. The plants are placed in the greenhouse at a temperature of approximately 22° C. and a relative atmospheric humidity of approximately 80%. The test is evaluated 8 days after the inoculation. 0% means an efficacy which corresponds to that of the untreated control, while an efficacy of 100% means that no disease is observed.

Structure (SMILES): Cn1c(=O)c2sc3c(=O)n(C)c(=O)c3sc2c1=O [(I-1), 2,6-dimethyl-1H,5H-[1,4]dithiino[2,3-c:5,6-c′]dipyrrole-1,3,5,7(2H,6H)-tetrone]
- Efficacy in % found (Venturia inaequalis; 12.5 ppm a.i.): 0%
- Efficacy in % found (Venturia inaequalis; 25 ppm a.i.): 15%
- Efficacy in % found (Venturia inaequalis; 50 ppm a.i.): 62%
- Efficacy in % found (Botrytis cinerea; 12.5 ppm a.i.): 15%
- Efficacy in % found (Botrytis cinerea; 25 ppm a.i.): 33%
- Efficacy in % found (Alternaria solani; 50 ppm a.i.): 29%
- Efficacy in % found (Alternaria solani; 100 ppm a.i.): 26%
- Efficacy in % found (Leptosphaeria nodorum; 1000 ppm a.i.): 0%

Structure (SMILES): CC1(C)N=C(c2cnc3ccccc3c2)c2ccccc2C1(F)F [Ex 10, 3-(4,4-difluoro-3,3-dimethyl-3,4-dihydroisoquinolin-1-yl)quinoline]
- Efficacy in % found (Alternaria solani; 100 ppm a.i.): 37%
- Efficacy in % found (Leptosphaeria nodorum; 250 ppm a.i.): 88%

Structure (SMILES): CC1(C)N=C(c2cnc3ccccc3c2)c2cccc(F)c2C1(C)C [Ex 11, 3-(5-fluoro-3,3,4,4-tetramethyl-3,4-dihydroisoquinolin-1-yl)quinoline]
- Efficacy in % found (Venturia inaequalis; 1 ppm a.i.): 0%
- Efficacy in % found (Botrytis cinerea; 0.5 ppm a.i.): 30%
- Efficacy in % found (Alternaria solani; 50 ppm a.i.): 38%
- Efficacy in % found (Leptosphaeria nodorum; 250 ppm a.i.): 75%

Structure (SMILES): CC1(C)N=C(c2cnc3ccccc3c2)c2cccc(F)c2C1(F)F [Ex 12, 3-(4,4,5-trifluoro-3,3-dimethyl-3,4-dihydroisoquinolin-1-yl)quinoline]
- Efficacy in % found (Venturia inaequalis; 0.25 ppm a.i.): 46%
- Efficacy in % found (Botrytis cinerea; 0.5 ppm a.i.): 35%
- Efficacy in % found (Alternaria solani; 50 ppm a.i.): 13%
- Efficacy in % found (Leptosphaeria nodorum; 250 ppm a.i.): 75%

Structure (SMILES): Cc1cc(OC(C)C)ccc1C(=O)C(C)(C)NC(=O)c1sccc1C [Ex 13, N-[1-(4-isopropoxy-2-methylphenyl)-2-methyl-1-oxopropan-2-yl]-3-methylthiophene-2-carboxamide]
- Efficacy in % found (Venturia inaequalis; 10 ppm a.i.): 64%
- Efficacy in % found (Alternaria solani; 20 ppm a.i.): 52%
- Efficacy in % found (Leptosphaeria nodorum; 250 ppm a.i.): 25%

Structure (SMILES): CNC(=O)C(OC)c1ccccc1COc1cc(C)ccc1C (stereo not drawn) [Ex 14, N-methyl-alpha-methoxy-2-[(2,5-dimethylphenoxy)methyl]phenylacetamide]
- Efficacy in % found (Venturia inaequalis; 1.25 ppm a.i.): 31%
- Efficacy in % found (Botrytis cinerea; 1.25 ppm a.i.): 0%
- Efficacy in % found (Alternaria solani; 5 ppm a.i.): 52%
- Efficacy in % found (Leptosphaeria nodorum; 250 ppm a.i.): 25%

Structure (SMILES): OC(c1cccnc1)c1c(-c2ccc(Cl)cc2F)noc1-c1ccc(F)cc1F (centres unmarked) [Ex 15, [3-(4-chloro-2-fluorophenyl)-5-(2,4-difluorophenyl)-1,2-oxazol-4-yl](pyridin-3-yl)methanol]
- Efficacy in % found (Venturia inaequalis; 5 ppm a.i.): 60%
- Efficacy in % found (Botrytis cinerea; 2.5 ppm a.i.): 0%
- Efficacy in % found (Alternaria solani; 5 ppm a.i.): 24%
- Efficacy in % found (Leptosphaeria nodorum; 250 ppm a.i.): 88%
